Experiment [1] relates to Mut6 cells. The experiment in a line: Mut6 cell survival / anti-proliferative activity. Type of experiment: cell-based, murine. The settings on record: read-out: IC50, viability / anti-proliferative activity in Mut6.
In experiment [2] the target is T1, p75/LSS (Mus musculus, UniProt Q8BLN5).
T1 construct: endogenous in cells; host or cells: Mut6 murine GBM stem-like cells
T1 sequence (Q8BLN5 1-733): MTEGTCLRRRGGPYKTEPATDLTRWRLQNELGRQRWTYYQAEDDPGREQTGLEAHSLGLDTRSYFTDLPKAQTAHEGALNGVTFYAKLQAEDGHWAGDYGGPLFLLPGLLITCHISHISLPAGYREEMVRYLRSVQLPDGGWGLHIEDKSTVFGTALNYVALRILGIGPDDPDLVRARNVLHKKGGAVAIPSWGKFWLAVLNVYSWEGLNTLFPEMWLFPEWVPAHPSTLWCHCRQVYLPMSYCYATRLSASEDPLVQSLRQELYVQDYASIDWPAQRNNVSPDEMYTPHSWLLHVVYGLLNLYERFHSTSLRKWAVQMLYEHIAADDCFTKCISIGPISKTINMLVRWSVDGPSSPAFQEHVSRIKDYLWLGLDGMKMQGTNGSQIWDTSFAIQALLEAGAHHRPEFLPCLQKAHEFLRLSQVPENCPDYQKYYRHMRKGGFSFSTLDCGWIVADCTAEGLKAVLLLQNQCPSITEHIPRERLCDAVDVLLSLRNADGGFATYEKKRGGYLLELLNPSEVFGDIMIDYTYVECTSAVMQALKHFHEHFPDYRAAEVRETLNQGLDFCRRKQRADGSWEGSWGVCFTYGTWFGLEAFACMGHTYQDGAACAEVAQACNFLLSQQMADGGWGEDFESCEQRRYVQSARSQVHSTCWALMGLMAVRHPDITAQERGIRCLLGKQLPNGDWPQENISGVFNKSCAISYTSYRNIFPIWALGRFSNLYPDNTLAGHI
Kind of experiment: p75 probe-displacement assay with MM0299-probe in Mut6 cells. Type of experiment: binding. To be noted: read-out: p75 binding EC50 (concentration of competitor required to displace 50% of probe-bound signal). Here is the method: We sought to understand the mechanism of action (MoA) of MM0299 by identifying which proteins it binds to in Mut6 cells. […] Following ultraviolet (UV) light exposure, photoreactive diazirine groups form reactive carbenes that have the potential to react with nearby amino acid residues resulting in the covalent addition of the compound to a bound protein. We incubated Mut6 cells with increasing concentrations of probe 2 either with or without UV treatment (306 nm), and the resulting lysates were reacted with a fluorescent azide in a copper(I)-catalyzed azide-alkyne cycloaddition (commonly referred to as “click” chemistry). […] Several protein bands increased in fluorescent intensity in a dose-dependent manner exclusively in the UV condition, the most prominent of which migrated at approximately 75 kDa (p75).
To determine whether binding to any of the observed bands was related to toxicity, we performed a series of probe-displacement assays by co-incubating cells with a fixed concentration of probe 2 and increasing concentrations of competitor 1. […] Even though probe 2 bound to multiple proteins, we observed that only p75 fluorescence decreased in a dose-dependent manner. […] In parallel, we determined the anti-proliferative activity for each derivative in a dose-dependent manner to determine its IC50, yielding a structure-activity relationship.

Structures are written as SMILES.

For `C=CCN(C)CCCCCCOc1ccc(C(=O)c2ccc(Br)cc2)c(F)c1` [Ro 48-8071, reference compound], the IC50 in experiment [1] was 11.2 nM. Further, in experiment [2], the EC50 came out at 2.48 nM.

(Values after patent US20250034091A1, “Small molecule inhibitors of lanosterol synthase” (Board of Regents, The University of Texas System, priority 2022, published 2025).)
